The record followed here is patent publication US20040029860A1, “Anti-proliferative drugs” (priority 2000, published 2004).

Like-named read-outs stand apart in the source and are kept apart here.

One test relates to HaCat keratinocytes. Nature of the test: keratinocyte viability, Neutral red, HaCat. The note with it: for cell viability HaCat (in words): 5-100 μM, 24 hr, Neutral red, FIG. 13A, 15A; for IC50: Homo sapiens, HaCaT. The class given is cell-based, human. How it is done: (§1) The drugs were administered at concentrations within the range of 5-100 μM and cell viability was measured 24 hr post-administration by Neutral red staining. The efficiency of the agents against viability of the cell lines was evaluated also by comparison with two commonly used anticancer agents (Doxorubicin and 5-fluorouracil (5-FU)) at equimolar concentrations.

The next test has as its system HaCat I5 keratinocytes. In words: keratinocyte viability, Neutral red, HaCat I5. It counts as cell-based, human. As to conditions: for cell viability HaCat I5 (in words): 5-100 μM, 24 hr, Neutral red, FIG. 13B, 15B; for IC50: Homo sapiens, HaCaT. How it is done:
as §1

For the next test, the system named is mouse melanoma (B-16). Nature of the test: cell viability, melanoma B16. It counts as cell-based. How it is done: (§2) Cyclic antidepressants at varying concentrations (between 10PM and 100 μM) was applied to neuroblastoma SH-SY5T, 3LL lung carcinoma, prostate (LN-CapAp), melanoma B16, and cell viability was determined as described above.
In the next test the test system is different cell-lines. In words: mean IC50 over cell lines and therapeutic index.
In test [1] the test system is human neuroblastoma (SK-N-SH). Nature of the test: cell viability (neutral red, Almar Blue, Hoechst dye), neuroblastoma SK-N-SH. The class given is cell-based.
Test [2] relates to human neuroblastoma (SH-SY5T). Nature of the test: cell viability, neuroblastoma SH-SY5T. As to conditions: Homo sapiens. It counts as cell-based. As to the method:
The effect of paroxetine on primary tissue cultures was also evaluated. […] The viability of the cells after treatment with paroxetine was determined by neutral red (NR) technology 24 hr. post treatment.
as §2

A further test has as its system rat glioblastoma (C6). Nature of the test: cell viability, glioma C6. The class given is cell-based. The note with it: for IC50: Table 1A.
Another test has as its system mouse lung sarcoma (3LL). In words: cell viability, lung 3LL. The class given is cell-based. The note with it: for IC50: Mus musculus, Table 1B, read-out: Cell viability IC50 Lungs Sarcoma 3LL. How it is done: In another experiment the effect of clotiapine at the same concentrations on the viability of mouse lung carcinoma (3LL) cells was determined.
as §2

Test [3] deals with mouse embryo whole brain culture. Nature of the test: primary tissue culture, whole brain. The class given is cell-based. The note with it: read-out: IC50 whole brain tissue.
The subject of test [4] is mouse Lewis lung carcinoma (3LL). Nature of the test: in vivo effect on Lewis lung carcinoma (3LL) in mice. As to conditions: 3LL inoculated C57 mice, i.p. daily, thioridazine 15 mg/kg, others 30 mg/kg. As to the method: Female C57 black mice aged 4 weeks were used in order to evaluate the in vivo effect of cyclic psychotropic agents on tumor cells. In particular, animals were divided into 5 groups (6-8 mice each). Animals were inoculated with mouse Lewis lung carcinoma (3LL, 0.5 million each) by i.v. injection to the tail vein and then treated by i.p. injection daily for 3 weeks with the following different agents
(5) Paroxetine (30 mg/kg).
During the treatment period animals were inspected daily and their body weight registered twice a week. […] After the four weeks of treatment the mice were sacrificed and their lungs dissected and weighted.

For test [5], the system named is doxorubicin resistant neuroblastoma cells (SH-SY5T). In words: sensitization to doxorubicin, doxorubicin resistant neuroblastoma SH-SY5T. The class given is cell-based, human. The note with it: dose dependant, FIG. 6E, 6F.
Test [6] has as its system human prostate (LN-CapAp). Nature of the test: cell viability, prostate LN-Cap. The note with it: for inhibition of cell proliferation, LN-Cap (in words): 1 μM-100 μM, androgen dependent, FIG. 2A; for IC50: Table 1A, read-out: Viability IC50 Prostate LN-Cap. It counts as cell-based. As to the method:
The effect of trifluoperazine and flupentixol was studied in two cell-lines of human prostate cancer: androgen dependent (LN-Cap) and androgen independent (PC-3).
as §2

The test system of test [7] is human prostate cancer PC-3. Nature of the test: cell viability, prostate PC-3. It counts as cell-based. The note with it: for inhibition of cell proliferation, PC-3 (in words): 1 μM-100 μM, androgen independent, FIG. 2B; for IC50: Table 1A, read-out: Viability IC50 Prostate PC3.
The mark [8] stands for this setting: Mus musculus, Table 1B, read-out: Cell viability IC50 Melanoma 16B.
[9] abbreviates: Mus musculus, Table 1A, read-out: Viability IC50 Melanoma B16.
[10] abbreviates: primary culture, data not shown.

Protocol for Melanoma B16 cells: Mice C57 black females ages 5-7 weeks were used. Mice were inoculated with Melanoma B16 cells and divided randomly (7-8/cage). Animals were divided into three groups:
1. Control-B16 cells with no therapy;
2. Treatment with doxorubicin 4 mg/kg i.p given once (3 days later).

`O=c1[nH]cc(F)c(=O)[nH]1` [5-FU, 5-fluorouracil]: in the test on HaCat keratinocytes, the “cell viability HaCat (in words)” value is “resistant”. Besides, the “cell viability HaCat I5 (in words)” value in the test on HaCat I5 keratinocytes is listed as “resistant”.
As for `CN(C)CCC=C1c2ccccc2CCc2ccccc21` [Amitriptiline], the IC50 with mouse melanoma (B-16) (setting [8]) and in the test with different cell-lines (read-out: IC50 Mean +/− SD) was 64 µM each time.
On to `CN(C)CCCN1c2ccccc2Sc2ccc(Cl)cc21` [Chlorpromazine], for which the IC50 in test [1] (Homo sapiens, SK-N-SH, Table 1A) turned out to be 100 µM; in test [2] (Table 1A, read-out: Viability IC50 Neuroblastoma SH-SY5T), 15 µM; with rat glioblastoma (C6) (Rattus norvegicus), 22 µM; in the test with mouse melanoma (B-16) (setting [9]) it was 46 µM; with different cell-lines (read-out: IC50 Mean ± SD) it was 45.7 ± 33.3 µM.
Regarding `CN1CCN(C2=Nc3ccccc3Sc3ccc(Cl)cc32)CC1` [Clotiapine], the IC50 in the test on mouse melanoma (B-16) (setting [8]) is 45 µM; with mouse lung sarcoma (3LL), 40 µM; with HaCat keratinocytes (mean of the determinations, read-out: IC50 HaCat ME), more than 100 µM; in the test on HaCat keratinocytes (single determinations, read-out: IC50 HaCat) it was more than 100 µM; with HaCat I5 keratinocytes (mean of the determinations, read-out: IC50 HaCat I5 ME), more than 100 µM; in the test on HaCat I5 keratinocytes (single determinations, read-out: IC50 HaCat I5), more than 100 µM. Also, the “cell viability, 3LL lung carcinoma (in words)” value in the test on mouse lung sarcoma (3LL) (10 μM-100 μM, FIG. 3B, 4B) is given as “effective in reducing viability”.
On to `CN1CCN(C2=Nc3cc(Cl)ccc3Nc3ccccc32)CC1` [Clozapine], for which the IC50 in test [3] (setting [10]) was more than 200 µM.
With `CNCCC(Oc1ccc(C(F)(F)F)cc1)c1ccccc1` (centres unmarked) [Fluoxetine], the “survival rate during four weeks of treatment” value in test [4] was 5/7. Besides, in test [4] (FIG. 5), the “lungs weight / tumor size compared to control group” value is “effective in reducing tumor size”. Further, the “potentiation of doxorubicin toxicity (in words)” value in [5] was “potentiate the toxicity of doxorubicin”. Also, the “cell viability HaCat (in words)” value in the test on HaCat keratinocytes is “effective in reducing cell viability”. Also, the “cell viability HaCat I5 (in words)” value with HaCat I5 keratinocytes is “effective in reducing cell viability”.
Take `OCCN1CCN(CC/C=C2/c3ccccc3Sc3ccc(C(F)(F)F)cc32)CC1` [Flupentixiol]: the IC50 with rat glioblastoma (C6) was found to be 14 µM; in the test with mouse melanoma (B-16) (Table 1A, read-out: Viability IC50 Melanoma B16) it was 18 µM; in [6], 23 µM; in [7], 18 µM; in the test on different cell-lines (read-out: IC50 Mean ± SD, Table 1A, mean over the cell lines) it was 18.2 ± 3.2 µM. Besides, the “inhibition of cell proliferation, LN-Cap (in words)” value in test [6] is reported as “effective in inhibition of cell proliferation”. The “inhibition of cell proliferation, PC-3 (in words)” value in test [7] is “effective in inhibition of cell proliferation”.
Turning to `O=C(CCCN1CCC(O)(c2ccc(Cl)cc2)CC1)c1ccc(F)cc1` [Haloperidol], the IC50 in test [3] (setting [10]) was more than 200 µM.
As for `CN(C)CCCN1c2ccccc2CCc2ccccc21` [Imipramine], the IC50 in [2] (Table 1B, read-out: Cell viability IC50 Neuroblastoma SH-SY5T) turned out to be 69 µM; in the test with mouse lung sarcoma (3LL), 12 µM; with different cell-lines (read-out: IC50 Mean +/− SD), 38.5 µM.
Turning to `Cc1nc2n(c(=O)c1CCN1CCC(c3noc4cc(F)ccc34)CC1)CCCC2` [Risperidone], in [3], the IC50 is more than 200 µM.
For the molecule `CCN1CCCC1CNC(=O)c1cc(S(N)(=O)=O)ccc1OC` (centres unmarked) [Sulpiride], in test [1] (Table 1C), the “Viability IC50 Neuroblastoma SK-N-SH” value is “Non Toxic”. The “Viability IC50 Glioma C6” value with rat glioblastoma (C6) (Table 1C) was “Non Toxic”. Further, in test [6] (Table 1C), the “Viability IC50 Prostate LN-CapAp” value is “Non Toxic”. Moreover, in test [3] (setting [10]), the IC50 is more than 200 µM.
Turning to `CN1CCN(CCCN2c3ccccc3Sc3ccc(C(F)(F)F)cc32)CC1` [Trifluoperazine], the IC50 worked out at 14 µM with rat glioblastoma (C6) (Rattus norvegicus); 16 µM with mouse melanoma (B-16) (setting [9]); 18 µM in test [6] (Homo sapiens, LNCaP); 19 µM in test [7] (Homo sapiens); 16.7 ± 1.9 µM in the test with different cell-lines (read-out: IC50 Mean ± SD). Moreover, the “inhibition of cell proliferation, LN-Cap (in words)” value in test [6] was “effective in inhibition of cell proliferation”. The “inhibition of cell proliferation, PC-3 (in words)” value in [7] is “effective in inhibition of cell proliferation”.
Regarding `COc1cccc2c1C(=O)c1c(O)c3c(c(O)c1C2=O)C[C@@](O)(C(=O)CO)C[C@@H]3O[C@H]1C[C@H](N)[C@H](O)[C@H](C)O1` [doxorubicin], the “cell viability HaCat (in words)” value with HaCat keratinocytes is “same equimolar IC50 levels as for thioridazine”. Also, the “cell viability HaCat I5 (in words)” value in the test on HaCat I5 keratinocytes is “only the HaCat (non tumorigenic) cells responded”. Further, in the test with Melanoma B16 cells (Table 2, of 7 total), the “Confluent lung metastases (number of mice)” value stood at 3, the “Early death (number of mice)” value is reported as 2 and the “Non-confluent lung metastases (number of mice)” value came out at 2. Moreover, in the test with Melanoma B16 cells (after 21 days, B16 control 0/7), the “number of animals presenting non confluent lungs” value was 2/7. The molecule also yielded a lungs weight in the test on Melanoma B16 cells (after 21 days, B16 controls 770+/−95) of 538 ± 137 mg. Further, the “survival / animals died” value in the test with Melanoma B16 cells (doxorubicin 4 mg/kg i.p. once, thioridazine 25-35 mg/kg/day via drinking water) is recorded as 2/7.
